From PubChem BioAssay AID330 (DTP/NCI, 2004)
Values joined by “and” are separate entries in the source; they are usually repeats but may differ in a detail not shown here. Equal values may be shown once. Toxic doses and inconclusive results are not listed.

System: P388 leukemia ip, CD2F1 mice, survival T/C
Test: NCI In Vivo Anticancer Drug Screen. Data for tumor model P388 Leukemia (intraperitoneal) in CD2F1 (CDF1) mice
Details: endpoint: median survival time, higher = longer survival
In short: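 Mice carrying the transplanted tumor received test compound or vehicle. Survival was recorded in each group, and the value is the treated-group measurement divided by that of the vehicle-treated control group.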

[1] = dose: 100.0 mg/kg/injection, schedule: Q04DX003 (ip), vehicle: saline with Tween-80
[2] = dose: 200.0 mg/kg/injection, schedule: Q04DX003 (ip), vehicle: saline with Tween-80
[3] = dose: 60.0 mg/kg/injection, schedule: Q01DX005 (ip), vehicle: saline with Tween-80
[4] = dose: 120.0 mg/kg/injection, schedule: Q01DX005 (ip), vehicle: saline with Tween-80
[5] = dose: 240.0 mg/kg/injection, schedule: Q01DX005 (ip), vehicle: saline with Tween-80
[6] = dose: 50.0 mg/kg/injection, schedule: Q01DX009 (ip), vehicle: saline
[7] = dose: 100.0 mg/kg/injection, schedule: Q01DX009 (ip), vehicle: saline
[8] = dose: 200.0 mg/kg/injection, schedule: Q01DX009 (ip), vehicle: saline
[9] = dose: 100.0 mg/kg/injection, schedule: Q04DX002 (ip), vehicle: saline with Tween-80
[10] = dose: 200.0 mg/kg/injection, schedule: Q04DX002 (ip), vehicle: saline with Tween-80
[11] = dose: 400.0 mg/kg/injection, schedule: Q04DX002 (ip), vehicle: saline with Tween-80
[12] = dose: 50.0 mg/kg/injection, schedule: Q01DX005 (ip), vehicle: saline with Tween-80
[13] = dose: 100.0 mg/kg/injection, schedule: Q01DX005 (ip), vehicle: saline with Tween-80
[14] = dose: 200.0 mg/kg/injection, schedule: Q01DX005 (ip), vehicle: saline with Tween-80

SMILES: CC12CCC(Br)C(C)(C)C1CC=C1C(=O)OCC1O2 (stereo not given)
- T/C (dose: 7.5 mg/kg/injection, schedule: Q01DX009 (ip), vehicle: Klucel (hydroxypropylcellulose) (HPC)): 101 % of control
- T/C (dose: 15.0 mg/kg/injection, schedule: Q01DX009 (ip), vehicle: Klucel (hydroxypropylcellulose) (HPC)): 105 % of control
- T/C (dose: 30.0 mg/kg/injection, schedule: Q01DX009 (ip), vehicle: Klucel (hydroxypropylcellulose) (HPC)): 111 % of control
- T/C (dose: 60.0 mg/kg/injection, schedule: Q01DX009 (ip), vehicle: Klucel (hydroxypropylcellulose) (HPC)): 111 % of control

SMILES: COc1cccc2c1C(=O)c1c(O)c3c(c(O)c1C2=O)C[C@@](O)(C(C)=O)C[C@@H]3OC1CC(N)C(OC2CC(O)C(O)C(C)O2)C(C)O1 (stereo not given in full)
- T/C (dose: 2.25 mg/kg/injection, schedule: Q04DX003 (ip), vehicle: distilled water + Tween-80): 113 % of control
- T/C (dose: 4.5 mg/kg/injection, schedule: Q04DX003 (ip), vehicle: distilled water + Tween-80): 113 % of control
- T/C (dose: 6.25 mg/kg/injection, schedule: Q04DX003 (ip), vehicle: distilled water + Tween-80): 112 % of control
- T/C (dose: 9.0 mg/kg/injection, schedule: Q04DX003 (ip), vehicle: distilled water + Tween-80): 123 % of control
- T/C (dose: 12.5 mg/kg/injection, schedule: Q04DX003 (ip), vehicle: distilled water + Tween-80): 112 % of control
- T/C (dose: 25.0 mg/kg/injection, schedule: Q04DX003 (ip), vehicle: distilled water + Tween-80): 119 % of control
- T/C (dose: 36.0 mg/kg/injection, schedule: Q04DX003 (ip), vehicle: distilled water + Tween-80): 123 % of control
- T/C (dose: 100.0 mg/kg/injection, schedule: Q04DX003 (ip), vehicle: distilled water + Tween-80): 118 % of control

SMILES: C1CC[N-]CC1.C1CC[N-]CC1.[Cl][Pt+2]([Cl])([Cl])[Cl]
- T/C (dose: 264.0 mg/kg/injection, schedule: Q01DX009 (ip), vehicle: saline with Tween-80): 86 % of control

SMILES: C/C(=N\NC(=S)NCc1ccccc1)c1nccnc1C
- T/C (dose: 3.13 mg/kg/injection, schedule: Q01DX005 (ip), vehicle: saline with Tween-80): 104 % of control
- T/C (dose: 6.25 mg/kg/injection, schedule: Q01DX005 (ip), vehicle: saline with Tween-80): 109 % of control and 112 % of control

SMILES: C[C@]12CCCC[C@@H]1CC[C@@H]1[C@@H]2[C@@H](O)C[C@@]2(C)[C@H]1CC[C@]2(C)O
- T/C [1]: 100 % of control
- T/C [2]: 100 % of control

SMILES: CSC(=S)/C(=C(/[O-])c1ccccc1)[n+]1cccc(C)c1
- T/C (dose: 2.5 mg/kg/injection, schedule: Q04DX002 (ip), vehicle: saline with Tween-80): 99 % of control
- T/C (dose: 5.0 mg/kg/injection, schedule: Q04DX002 (ip), vehicle: saline with Tween-80): 106 % of control
- T/C (dose: 10.0 mg/kg/injection, schedule: Q04DX002 (ip), vehicle: saline with Tween-80): 106 % of control

SMILES: NC(=O)N/N=C1/CC(=O)N(c2ccccc2)C1c1ccccc1 (stereo not given)
- T/C [3]: 93 % of control
- T/C [4]: 91 % of control
- T/C [5]: 92 % of control

SMILES: CSC(SC)=C(C#N)c1nc(SC)c(C#N)c(SC)n1
- T/C (dose: 50.0 mg/kg/injection, schedule: Q04DX003 (ip), vehicle: saline): 102 % of control
- T/C (dose: 100.0 mg/kg/injection, schedule: Q04DX003 (ip), vehicle: saline): 112 % of control

SMILES: CC1CCCCC1OC(=O)Nc1ccccc1 (stereo not given)
- T/C [6]: 105 % of control
- T/C [7]: 101 % of control
- T/C [8]: 100 % of control

SMILES: COc1cccc2c1C(=O)c1c(O)c3c(c(O)c1C2=O)C[C@@](O)(C(=O)COc1ccccc1)C[C@@H]3OC1CC(N)C(O)C(C)O1 (stereo not given in full)
- T/C (dose: 1.56 mg/kg/injection, schedule: Q01DX009 (ip), vehicle: water): 151 % of control and 169 % of control
- T/C (dose: 3.13 mg/kg/injection, schedule: Q01DX009 (ip), vehicle: water): 155 % of control and 179 % of control
- T/C (dose: 6.25 mg/kg/injection, schedule: Q01DX009 (ip), vehicle: water): 174 % of control and 186 % of control
- T/C (dose: 12.5 mg/kg/injection, schedule: Q01DX009 (ip), vehicle: water): 176 % of control and 179 % of control

SMILES: CN1C(=O)C(O)(CC(=O)c2ccccc2)c2ccccc21 (stereo not given)
- T/C (dose: 50.0 mg/kg/injection, schedule: Q01DX009 (ip), vehicle: saline with Tween-80): 93 % of control
- T/C (dose: 100.0 mg/kg/injection, schedule: Q01DX009 (ip), vehicle: saline with Tween-80): 93 % of control
- T/C (dose: 200.0 mg/kg/injection, schedule: Q01DX009 (ip), vehicle: saline with Tween-80): 90 % of control

SMILES: CSc1nc(SC)c2c(CO)c(Br)n(Cc3ccccc3)c2n1
- T/C [9]: 98 % of control
- T/C [10]: 94 % of control
- T/C [11]: 88 % of control

SMILES: O=C(c1ccccc1)C1CCCN(c2ccccc2)S1(=O)=O (stereo not given)
- T/C [1]: 98 % of control
- T/C [2]: 104 % of control
- T/C (dose: 400.0 mg/kg/injection, schedule: Q04DX003 (ip), vehicle: saline with Tween-80): 94 % of control

SMILES: CCOC(=O)N1CCC23C=C(OC)C(=O)C=C2C1Cc1ccc(OC)c(O)c13 (stereo not given)
- T/C [9]: 100 % of control
- T/C [10]: 105 % of control
- T/C [11]: 93 % of control

SMILES: COc1ccc(CCNC2Oc3ccc([N+](=O)[O-])cc3-c3nc(C)c(C#N)cc32)cc1OC (stereo not given)
- T/C (dose: 15.0 mg/kg/injection, schedule: Q01DX005 (ip), vehicle: saline with Tween-80): 98 % of control
- T/C (dose: 30.0 mg/kg/injection, schedule: Q01DX005 (ip), vehicle: saline with Tween-80): 98 % of control
- T/C [3]: 91 % of control and 92 % of control

SMILES: Cc1ccc(SCc2c(COc3ccc(Cl)cc3)sc3ccc(Cl)cc23)cc1
- T/C (dose: 100.0 mg/kg/injection, schedule: Q01DX001 (ip), vehicle: saline with Tween-80): 90 % of control
- T/C (dose: 200.0 mg/kg/injection, schedule: Q01DX001 (ip), vehicle: saline with Tween-80): 86 % of control
- T/C (dose: 400.0 mg/kg/injection, schedule: Q01DX001 (ip), vehicle: saline with Tween-80): 100 % of control

SMILES: O=C1CSC(c2ccc(F)cc2)N1c1nncs1 (stereo not given)
- T/C [3]: 99 % of control
- T/C [4]: 97 % of control
- T/C [5]: 101 % of control

SMILES: COc1cc2c(cc1OC)OC(C)(C)C=C2
- T/C (dose: 6.87 mg/kg/injection, schedule: Q01DX009 (ip), vehicle: saline with Tween-80): 106 % of control
- T/C (dose: 13.75 mg/kg/injection, schedule: Q01DX009 (ip), vehicle: saline with Tween-80): 98 % of control
- T/C (dose: 27.5 mg/kg/injection, schedule: Q01DX009 (ip), vehicle: saline with Tween-80): 108 % of control
- T/C (dose: 55.0 mg/kg/injection, schedule: Q01DX009 (ip), vehicle: saline with Tween-80): 102 % of control

SMILES: COC(=O)C1[C@@H](C(=O)c2ccccc2)N2C=Cc3ccccc3[C@@H]2[C@H]1C(=O)OC (stereo not given in full)
- T/C (dose: 60.0 mg/kg/injection, schedule: Q01DX005 (ip), vehicle: saline + Tween-80 + alcohol): 93 % of control
- T/C (dose: 120.0 mg/kg/injection, schedule: Q01DX005 (ip), vehicle: saline + Tween-80 + alcohol): 93 % of control
- T/C (dose: 240.0 mg/kg/injection, schedule: Q01DX005 (ip), vehicle: saline + Tween-80 + alcohol): 92 % of control

SMILES: CCOC(=O)COc1ccc(Cc2ccc3c(c2)OCO3)cc1C
- T/C [12]: 97 % of control
- T/C [13]: 97 % of control
- T/C [14]: 93 % of control

SMILES: COc1ccc(N(C)C(=O)c2ccccc2S(=O)(=O)c2ccccc2C(=O)N(C)c2ccc(OC)cc2)cc1
- T/C [12]: 104 % of control
- T/C [13]: 98 % of control
- T/C [14]: 100 % of control

SMILES: Cc1cccc([B-]23OCC[N+]2(CNC(=O)c2ccccc2O)CCO3)c1 (stereo not given)
- T/C (dose: 50.0 mg/kg/injection, schedule: Q01DX005 (ip), vehicle: Klucel (hydroxypropylcellulose) (HPC)): 105 % of control
- T/C (dose: 100.0 mg/kg/injection, schedule: Q01DX005 (ip), vehicle: Klucel (hydroxypropylcellulose) (HPC)): 104 % of control
- T/C (dose: 200.0 mg/kg/injection, schedule: Q01DX005 (ip), vehicle: Klucel (hydroxypropylcellulose) (HPC)): 104 % of control

SMILES: COC(=O)CCCOCCCC(=O)OC
- T/C [6]: 95 % of control
- T/C [7]: 99 % of control

SMILES: CCCCCCCCCCCCCCCCSc1ccc(C)cc1
- T/C (dose: 25.0 mg/kg/injection, schedule: Q04DX003 (ip), vehicle: other): 105 % of control
- T/C (dose: 50.0 mg/kg/injection, schedule: Q04DX003 (ip), vehicle: other): 95 % of control
- T/C (dose: 100.0 mg/kg/injection, schedule: Q04DX003 (ip), vehicle: other): 100 % of control

SMILES: CC(Nc1cccc([N+](=O)[O-])c1)S(=O)(=O)O (stereo not given)
- T/C [6]: 97 % of control
- T/C [7]: 100 % of control
- T/C [8]: 97 % of control

SMILES: CCOC1C(=O)C=COC1C(C)C (stereo not given)
- T/C (dose: 60.0 mg/kg/injection, schedule: Q01DX005 (ip), vehicle: saline): 108 % of control
- T/C (dose: 120.0 mg/kg/injection, schedule: Q01DX005 (ip), vehicle: saline): 104 % of control
- T/C (dose: 240.0 mg/kg/injection, schedule: Q01DX005 (ip), vehicle: saline): 110 % of control
